Patent publication US10894412B2, “Ink jet recording apparatus” (Seiko Epson Corporation, priority 2018, dated 2021)

What was measured:
[1] = Solubility of organic compound in the ink; type: physicochemical; details: in the ink of Comparative Example 4
Description: Incidentally, values in the table are in mass percent. Pigment, dye, and dispersion resin in the table each show the amount of solid matter.

[2] = Octanol/water distribution coefficient (log P value, OECD Test Guideline 107); type: physicochemical
Description: The octanol/water distribution coefficient is a value referred to as a log P value and refers to a value defined in OECD Test Guideline 107. As the log P value is larger, the hydrophobicity is higher. As the log P value is smaller, the hydrophilicity is higher.

In the case of `COC(=O)c1ccc(C(=O)OC)cc1` [dimethyl terephthalate], the solubility [1] is reported as “poor” and the octanol/water distribution coefficient [2] is reported as 2.25.
